The record followed here is patent US8309685B2 (Celgene Avilomics Research, Inc., priority 2007, dated 2012).

Experiment [1] has as its target T1, D168A mutant of the HCV NS3/4A 1b protease enzyme (Hepatitis C virus genotype 1b, UniProt P26663, D1194A).
T1 construct: 10× stocks of NS3/4A protease enzyme from Bioenza (Mountain View, Calif.); purchased Bioenza (Mountain View, Calif.)
The experiment in a line: HCV Protease FRET Assay (IC50_APP), D168A mutant. The format is biochemical. To be noted: apparent IC50, D168A mutant; read-out: IC50_APP, HCV D168A. On the procedure: (§1) HCV Protease FRET Assay for WT and Mutated NS3/4A 1b Enzymes (IC50—APP).
(§2) The following protocol was used to generate “apparent” IC50 (IC50—APP) values as depicted in Table 6, below. […] 5 μL of each enzyme were added to Corning (#3575) 384-well, black, microtiter plates (Corning, N.Y.) after spotting a 0.5 μL volume of 50% DMSO and serially diluted compounds prepared in 50% DMSO. Protease reactions were immediately started after enzyme addition with the addition of 45 μL of the FRET substrate and monitored for 60-90 minutes at λex485/λem520 in a Synergy^4 plate reader from BioTek (Winooski, Vt.). At the conclusion of each assay, progress curves from each well were examined for linear reaction kinetics and fit statistics (R^2, 95% confidence intervals, absolute sum of squares).
(§3) The compound numbers correspond to the compound numbers in Table 3. […] ;

The target of experiment [2] is T2, wild type HCV NS3/4A 1b protease enzyme (Hepatitis C virus genotype 1b, UniProt P26663).
T2 construct: 10× stocks of NS3/4A protease enzyme from Bioenza (Mountain View, Calif.); purchased Bioenza (Mountain View, Calif.)
Put plainly: HCV Protease FRET Assay (IC50_APP), wild type. It is filed as biochemical. As to conditions: read-out: IC50_APP, WT; apparent IC50, wild type NS3/4A 1b. On the procedure:
as §1, §2, §3

For experiment [3], the target named is T3, A156T mutant of the HCV NS3/4A 1b protease enzyme (Hepatitis C virus genotype 1b, UniProt P26663, A1182T).
T3 construct: 10× stocks of NS3/4A protease enzyme from Bioenza (Mountain View, Calif.); purchased Bioenza (Mountain View, Calif.)
The experiment in a line: HCV Protease FRET Assay (IC50_APP), A156T mutant. It is filed as biochemical. To be noted: apparent IC50, A156T mutant; read-out: IC50_APP, HCV A156T. On the procedure: as §1, §2, §3

For experiment [4], the system named is HCV RNA replicon in cell line ET (luc-ubi-neo/ET), human Huh7 hepatoma. Put plainly: Method A: HCV RNA replicon antiviral assay (luciferase, ET cell line). The format is cell-based, Hepatitis C virus. To be noted: Hepatitis C virus, Huh-7, assay described in Example 22; for IC50: read-out: Replicon (IC50). On the procedure:
The compounds were assayed to evaluate the antiviral activity and cytotoxicity of compounds in vitro using HCV RNA replicons. This assay used the cell line ET (luc-ubi-neo/ET), which is a human Huh7 hepatoma cell line that contains an HCV RNA replicon with a stable luciferase (Luc) reporter and three cell culture-adaptive mutations. […]
The ET cell line was grown in Dulbecco's modified essential media (DMEM), 10% fetal bovine serum (FBS), 1% penicillin-streptomycin (pen-strep), 1% glutamine, 250 μg/ml G418 in a 5% CO2 incubator at 37° C. All cell culture reagents were obtained from Mediatech (Manassas, Va.). Cells were trypsinized (1% trypsin:EDTA) and plated out at 5×10^3 cells/well in white 96-well assay plates (Costar) dedicated to cell number (cytotoxicity) or antiviral activity assessments. Drugs were added at six 3-fold concentrations each and the assay was run in DMEM, 5% FBS, 1% pen-strep, 1% glutamine. Human interferon alpha-2b (PBL Biolabs, New Brunswick, N.J.) was included in each run as a positive control compound. Cells were processed 72 hr post drug addition when the cells are still subconfluent. Antiviral activity was measured by analyzing replicon-derived luciferase activity using the Steady-Glo Luciferase Assay System (Promega, Madison, Wis.) according to manufacturer's instruction. The number of cells in each well was determined by CytoTox-1 reagent (Promega). Compound profile was derived by calculating applicable EC50 (effective concentration inhibiting virus replication by 50%), EC90 (effective concentration inhibiting virus replication by 90%), IC50 (concentration decreasing cell viability by 50%) and SI50 (selective index: […]) values.

For the compound `C=CC(=O)N[C@H](C(=O)N1C[C@H](Oc2cc(-c3ccccc3)nc3cc(OC)ccc23)C[C@H]1C(=O)N[C@]1(C(=O)NS(=O)(=O)c2ccccc2)C[C@H]1C=C)C(C)C` [Compound I-60, (2S,4R)-1-((S)-2-acrylamido-3-methylbutanoyl)-N-((1R,2S)-1-(phenylylsulfonylcarbamoyl)-2-vinylcyclopropyl)-4-(7-methoxy-2-phenylquinolin-4-yloxy)pyrrolidine-2-carboxamide], the IC50 in experiment [1] fell in the range of 1000 to 10000 nM; in experiment [2], 10 to 100 nM; in experiment [3], 100 to 1000 nM; in experiment [4] it was 10 to 100 nM. Moreover, the 90% effect concentration (IC90) in experiment [4] fell in the range of 100 to 1000 nM.
Consider `C#Cc1ccc(S(=O)(=O)NC(=O)[C@@]2(NC(=O)[C@@H]3C[C@@H](Oc4cc(-c5ccccc5)nc5cc(OC)ccc45)CN3C(=O)[C@H](CNC(=O)C=C)NC(=O)OC(C)(C)C)C[C@H]2C=C)cc1` [Compound I-61, t-butyl-(S)-3-acrylamido-1-((2S,4R)-2-((1R,2S)-1-(4-ethynylphenylsulfonylcarbamoyl)-2-vinylcyclopropylcarbamoyl)-4-(7-methoxy-2-phenylquinolin-4-yloxy)pyrrolidin-1-yl)-1-oxopropan-2-ylcarbamate], for which the IC50 in experiment [1] is 1000 to 10000 nM; in experiment [2], 10 to 100 nM; in experiment [3], 1000 to 10000 nM; in experiment [4], 100 to 1000 nM. The same compound yielded an IC90 in experiment [4] of 1000 to 10000 nM.
For `C=C[C@@H]1C[C@]1(NC(=O)[C@@H]1CC(Oc2cc(-c3ccccc3)nc3cc(OC)ccc23)CN1C(=O)OC(C)(C)C)C(=O)NS(=O)(=O)C1CC1` (stereo partly drawn) [Compound I-62], the IC50 in experiment [1] is 1000 to 10000 nM; in experiment [2] it was under 10 nM; in experiment [3], 100 to 1000 nM; in experiment [4] it was 10 to 100 nM. In experiment [4], the IC90 lay in the range of 100 to 1000 nM.
On to `C=CC(=O)O[C@H](C)[C@H](NC(=O)OC(C)(C)C)C(=O)N1C[C@H](Oc2cc(-c3ccccc3)nc3cc(OC)ccc23)C[C@H]1C(=O)N[C@]1(C(=O)NS(=O)(=O)C2CC2)C[C@H]1C=C` [Compound I-64, t-butyl-(2S,3R)-3-acryloxy-1-((2S,4R)-2-((1R,2S)-1-(cyclopropylsulfonylcarbamoyl)-2-vinylcyclopropylcarbamoyl)-4-(7-methoxy-2-phenylquinolin-4-yloxy)pyrrolidin-1-yl)-1-oxobutan-2-ylcarbamate], for which the IC50 in experiment [1] was 10 to 100 nM; in experiment [2], under 10 nM; in experiment [3], 10 to 100 nM; in experiment [4], 100 to 1000 nM. The compound also had an IC90 in experiment [4] of 100 to 1000 nM.
With `C=CC(=O)N[C@@H](C(=O)N1C[C@H](Oc2cc(-c3ccccc3)nc3cc(OC)ccc23)C[C@H]1C(=O)N[C@]1(C(=O)NS(=O)(=O)C2CC2)C[C@H]1C=C)c1ccccc1` [Compound I-66, (2S,4R)-1-((R)-2-acrylamido-phenylacetyl)-N-((1R,2S)-1-(cyclopropylsulfonylcarbamoyl)-2-vinylcyclopropyl)-4-(7-methoxy-2-phenylquinolin-4-yloxy)pyrrolidine-2-carboxamide], the IC50 in experiment [1] was 100 to 1000 nM; in experiment [2], under 10 nM; in experiment [3], 100 to 1000 nM; in experiment [4], 10 to 100 nM. Moreover, in experiment [4], the IC90 is 100 to 1000 nM.
`C=C[C@@H]1C[C@]1(NC(=O)[C@@H]1C[C@@H](Oc2cc(-c3ccccc3)nc3cc(OC)ccc23)CN1C(=O)[C@H](CCC(=O)N[C@@H]1C(=O)O[C@@H]1C)NC(=O)OC(C)(C)C)C(=O)NS(=O)(=O)C1CC1` [Compound I-67, t-butyl-(2S)-1-((2S,4R)-2-((1R,2S)-1-(cyclopropylsulfonylcarbamoyl)-2-vinylcyclopropylcarbamoyl)-4-(7-methoxy-2-phenylquinolin-4-yloxy)pyrrolidin-1-yl)-5-((2R,3S)-2-methyl-4-oxooxetan-3-ylamino)-1,5-dioxopentan-2-ylcarbamate]: the IC50 in experiment [1] was under 10 nM; in experiment [2], under 10 nM; in experiment [3], under 10 nM; in experiment [4], 10 to 100 nM. Besides, in experiment [4], the IC90 was in the range of 100 to 1000 nM.
As for `C=C[C@@H]1C[C@]1(NC(=O)[C@@H]1C[C@@H](Oc2cc(-c3ccccc3)nc3cc(OC)ccc23)CN1C(=O)[C@H](CCC(=O)C=C(C)C)NC(=O)OC(C)(C)C)C(=O)NS(=O)(=O)C1CC1` [Compound I-68, tert-butyl-(S)-1-((2S,4R)-2-((1R,2S)-1-(cyclopropylsulfonylcarbamoyl)-2-vinylcyclopropylcarbamoyl)-4-(7-methoxy-2-phenylquinolin-4-yloxy)pyrrolidin-1-yl)-7-methyl-1,5-dioxooct-6-en-2-ylcarbamate], the IC50 in experiment [1] was 100 to 1000 nM; in experiment [2] it was under 10 nM; in experiment [3], 100 to 1000 nM; in experiment [4] it was under 10 nM. In addition, the IC90 in experiment [4] is 10 to 100 nM.
Regarding `C=C[C@@H]1C[C@]1(NC(=O)[C@@H]1C[C@@H](Oc2cc(-c3ccccc3)nc3cc(OC)ccc23)CN1C(=O)[C@H](CCC(=O)N1CCC1=O)NC(=O)OC(C)(C)C)C(=O)NS(=O)(=O)C1CC1` [Compound I-70, t-butyl-(2S)-1-((2S,4R)-2-((1R,2S)-1-(cyclopropylsulfonylcarbamoyl)-2-vinylcyclopropylcarbamoyl)-4-(7-methoxy-2-phenylquinolin-4-yloxy)pyrrolidin-1-yl)-5-(2-oxoazetidinyl)-1,5-dioxopentan-2-ylcarbamate], the IC50 in experiment [1] was under 10 nM; in experiment [2], under 10 nM; in experiment [3], under 10 nM; in experiment [4] it was 100 to 1000 nM. This compound had an IC90 in experiment [4] of 100 to 1000 nM.
Consider `C#CCOC(=O)N[C@@H](CN(C)C(=O)CCCl)C(=O)N1C[C@H](Oc2cc(-c3ccccc3)nc3cc(OC)ccc23)C[C@H]1C(=O)N[C@]1(C(=O)NS(=O)(=O)C2CC2)C[C@H]1C=C` [Compound I-71], for which the IC50 was 100 to 1000 nM in experiment [1], under 10 nM in experiment [2], 100 to 1000 nM in experiment [3] and 100 to 1000 nM in experiment [4]. Moreover, the IC90 in experiment [4] was in the range of 100 to 1000 nM.
As for `C=CC(=O)N(C)C[C@H](NC(=O)OC1CCCC1)C(=O)N1C[C@H](Oc2cc(-c3ccccc3)nc3cc(OC)ccc23)C[C@H]1C(=O)N[C@]1(C(=O)NS(=O)(=O)C2CC2)C[C@H]1C=C` [Compound I-72], the IC50 is 100 to 1000 nM in experiment [1], under 10 nM in experiment [2], 100 to 1000 nM in experiment [3] and under 10 nM in experiment [4]. Besides, in experiment [4], the IC90 is 10 to 100 nM.
Take `C=CC(=O)N(C)C[C@H](NC(=O)OC(C)(C)C)C(=O)N1C[C@H](Oc2nccc3ccc(Br)cc23)C[C@H]1C(=O)N[C@]1(C(=O)NS(=O)(=O)C2CC2)C[C@H]1C=C` [Compound I-84, tert-butyl-(S)-1-((2S,4R)-4-(7-bromoisoquinolin-1-yloxy)-2-((1R,2S)-1-(cyclopropylsulfonylcarbamoyl)-2-vinylcyclopropylcarbamoyl)pyrrolidin-1-yl)-3-(N-methylacrylamido)-1-oxopropan-2-ylcarbamate]: the IC50 in experiment [1] was 100 to 1000 nM; in experiment [2] it was under 10 nM; in experiment [3], 100 to 1000 nM; in experiment [4] it was 10 to 100 nM. This compound also returned an IC90 in experiment [4] of 100 to 1000 nM.
In the case of `C=CC(=O)N(C)CC[C@H](NC(=O)OC1CCCC1)C(=O)N1C[C@H](Oc2cc(-c3ccccc3)nc3cc(OC)ccc23)C[C@H]1C(=O)N[C@]1(C(=O)NS(=O)(=O)C2CC2)C[C@H]1C=C` [Compound I-85, Cyclopentyl-(S)-1-((2S,4R)-2-((1R,2S)-1-(cyclopropylsulfonylcarbamoyl)-2-vinylcyclopropylcarbamoyl)-4-(7-methoxy-2-phenylquinolin-4-yloxy)pyrrolidin-1-yl)-4-(N-methylacrylamido)-1-oxobutan-2-ylcarbamate], the IC50 in experiment [1] was 10 to 100 nM; in experiment [2] it was under 10 nM; in experiment [3], 10 to 100 nM; in experiment [4] it was 10 to 100 nM. Further, the IC90 in experiment [4] is 10 to 100 nM.
